Laboratory results as given in patent US10563263B2, “Genetic polymorphisms associated with statin response and cardiovascular diseases, methods of detection and uses thereof” (CELERA CORPORATION, priority 2010, dated 2020).

Tested on: CVD (CHD or stroke)
Assay: CARE: SNP by pravastatin treatment interaction, logistic regression (synergy index), CVD endpoint
Type: in vivo, human
Settings: CARE
Source text: CARE was a secondary prevention trial and WOSCOPS was a primary prevention trial.
The CHD endpoint was defined in the analyses herein of CARE as a composite endpoint of fatal CHD, definite non-fatal MI, or revascularization, and was defined in the analyses herein of WOSCOPS as a composite endpoint of death from CHD, nonfatal MI, or revascularization. In both the CARE and WOSCOPS analyses herein, the CVD endpoint was defined as a composite endpoint of CHD or stroke. […] Revascularization, which can include percutaneous transluminal coronary angioplasty (PTCA), stent placement, and coronary artery bypass graft (CABG), are medical interventions that indicate the presence of CHD.
Cohort and case-only study designs were used to identify SNPs associated with response to statin treatment.
For each SNP, a logistic regression model having treatment status as the dependent variable and SNP as the independent predictor variable was performed, with terms for age, sex and race included in the model as covariates. The anti-log of the regression coefficient corresponding to the SNP is an estimate of the synergy index (SI) (Davis et al., “Imputing gene-treatment interactions when the genotype distribution is unknown using case-only and putative placebo analyses-a new method for the Genetics of Hypertension Associated Treatment (GenHAT) study”, Statistics in Medicine 23: (2004), pages 2413-2427). The SI is a ratio of odds ratios: for example in the CARE and WOSCOPS studies, the SI represents the factor by which the odds-ratio of statin treatment, compared with placebo, among major homozygous individuals is multiplied by in order to obtain the odds-ratio of treatment vs. placebo among heterozygous individuals; and multiplied by a second time to obtain the odds-ratio of treatment vs. placebo in minor homozygous individuals. […] In a randomized clinical trial, genotype and treatment are independent by design.

**Q.** Which results are given for `CC[C@H](C)C(=O)O[C@H]1C[C@H](O)C=C2C=C[C@H](C)[C@H](CC[C@@H](O)C[C@@H](O)CC(=O)O)[C@H]21` [Pravastatin, pravastatin]?
**A.** OR (synergy index, SNP x pravastatin treatment interaction) (rs152707 allele A, model ADD, Imputed): 0.684; OR (synergy index, SNP x pravastatin treatment interaction) (rs152712 allele C, model ADD, Genotyped): 0.6783; OR (SNP x pravastatin interaction) (rs208026 allele A, DOM model, Genotyped): 1.457; OR (SNP x pravastatin interaction) (rs208029 allele T, DOM model, Imputed): 1.41; OR (SNP x pravastatin interaction) (rs208757 allele G, DOM model, Imputed): 1.423; OR (SNP x pravastatin interaction) (rs229775 allele A, REC model, Imputed): 0.3933; OR (SNP x pravastatin interaction) (rs229815 allele T, REC model, Imputed): 0.4053; OR (SNP x pravastatin interaction) (rs229829 allele C, REC model, Imputed): 0.5066; OR (SNP x pravastatin interaction) (rs229831 allele A, REC model, Imputed): 0.3945; OR (SNP x pravastatin interaction) (rs238252 allele G, ADD model, Imputed): 1.66; OR (SNP x pravastatin interaction) (rs238252 allele G, DOM model, Imputed): 1.848; OR (synergy index, SNP x pravastatin treatment interaction) (rs1444741 allele A, model DOM, Imputed): 0.6595; OR (synergy index, SNP x pravastatin treatment interaction) (rs1449916 allele C, model DOM, Imputed): 0.5892; OR (synergy index, SNP x pravastatin treatment interaction) (rs1459523 allele A, model ADD, Imputed): 1.366; OR (synergy index, SNP x pravastatin treatment interaction) (rs1476714 allele A, model DOM, Imputed): 0.6618; OR (synergy index, SNP x pravastatin treatment interaction) (rs1486723 allele C, model REC, Imputed): 0.4458; OR (synergy index, SNP x pravastatin treatment interaction) (rs1495375 allele A, model ADD, Imputed): 0.741; OR (synergy index, SNP x pravastatin treatment interaction) (rs1495375 allele A, model DOM, Imputed): 0.6085; OR (synergy index, SNP x pravastatin treatment interaction) (rs1495381 allele T, model REC, Imputed): 1.776; OR (synergy index, SNP x pravastatin treatment interaction) (rs1498061 allele C, model ADD, Imputed): 0.4939; OR (synergy index, SNP x pravastatin treatment interaction) (rs1498992 allele G, model DOM, Imputed): 0.5981; OR (synergy index, SNP x pravastatin treatment interaction) (rs1499001 allele T, model DOM, Imputed): 0.5667; OR (synergy index, SNP x pravastatin treatment interaction) (rs1512988 allele A, model ADD, Imputed): 0.7274; OR (synergy index, SNP x pravastatin treatment interaction) (rs1512988 allele A, model DOM, Imputed): 0.6077; OR (synergy index, SNP x pravastatin treatment interaction) (rs1512989 allele T, model ADD, Imputed): 0.7274; OR (synergy index, SNP x pravastatin treatment interaction) (rs1512989 allele T, model DOM, Imputed): 0.6077; OR (synergy index, SNP x pravastatin treatment interaction) (rs1512991 allele T, model ADD, Imputed): 0.7286; OR (synergy index, SNP x pravastatin treatment interaction) (rs1512991 allele T, model DOM, Imputed): 0.6184; OR (synergy index, SNP x pravastatin treatment interaction) (rs1524306 allele C, model ADD, Imputed): 1.366; OR (synergy index, SNP x pravastatin treatment interaction) (rs1524310 allele G, model ADD, Imputed): 1.366; OR (synergy index, SNP x pravastatin treatment interaction) (rs1527059 allele A, model DOM, Imputed): 0.5689; OR (synergy index, SNP x pravastatin treatment interaction) (rs1535866 allele G, model DOM, Imputed): 1.391; OR (synergy index, SNP x pravastatin treatment interaction) (rs1567740 allele T, model ADD, Imputed): 0.7274; OR (synergy index, SNP x pravastatin treatment interaction) (rs1567740 allele T, model DOM, Imputed): 0.6032; OR (synergy index, SNP x pravastatin treatment interaction) (rs1572573 allele A, model DOM, Imputed): 1.748; OR (synergy index, SNP x pravastatin treatment interaction) (rs1577497 allele C, model REC, Imputed): 0.4912; OR (synergy index, SNP x pravastatin treatment interaction) (rs1581514 allele T, model ADD, Imputed): 1.353; OR (synergy index, SNP x pravastatin treatment interaction) (rs1582321 allele T, model DOM, Imputed): 0.5814; OR (synergy index, SNP x pravastatin treatment interaction) (rs1582322 allele A, model DOM, Imputed): 0.5859; OR (synergy index, SNP x pravastatin treatment interaction) (rs1582323 allele A, model DOM, Imputed): 0.5825; OR (synergy index, SNP x pravastatin treatment interaction) (rs1592485 allele C, model DOM, Imputed): 0.5835; OR (synergy index, SNP x pravastatin treatment interaction) (rs1600954 allele T, model ADD, Imputed): 1.379; OR (synergy index, SNP x pravastatin treatment interaction) (rs1705261 allele A, model REC, Imputed): 1.775; OR (synergy index, SNP x pravastatin treatment interaction) (rs1832222 allele G, model DOM, Imputed): 1.612; OR (synergy index, SNP x pravastatin treatment interaction) (rs1861327 allele G, model DOM, Imputed): 0.5814; OR (synergy index, SNP x pravastatin treatment interaction) (rs1868581 allele G, model ADD, Imputed): 1.366; OR (synergy index, SNP x pravastatin treatment interaction) (rs1874313 allele A, model ADD, Imputed): 0.7419; OR (synergy index, SNP x pravastatin treatment interaction) (rs1874313 allele A, model DOM, Imputed): 0.615; OR (SNP x pravastatin interaction) (rs1876409 allele C, DOM model, Imputed): 0.6151; OR (SNP x pravastatin interaction) (rs1913201 allele G, ADD model, Imputed): 0.7218; OR (SNP x pravastatin interaction) (rs1913201 allele G, DOM model, Imputed): 0.6464; OR (SNP x pravastatin interaction) (rs1936871 allele G, DOM model, Genotyped): 0.571; OR (SNP x pravastatin interaction) (rs1961157 allele T, REC model, Imputed): 0.6068; OR (SNP x pravastatin interaction) (rs1987179 allele T, ADD model, Imputed): 0.7138; OR (SNP x pravastatin interaction) (rs1987179 allele T, DOM model, Imputed): 0.6634; OR (SNP x pravastatin interaction) (rs1990023 allele T, DOM model, Imputed): 0.6462; OR (SNP x pravastatin interaction) (rs1995025 allele C, DOM model, Imputed): 1.608; OR (SNP x pravastatin interaction) (rs2016194 allele G, DOM model, Imputed): 0.6626; OR (SNP x pravastatin interaction) (rs2023651 allele T, ADD model, Imputed): 0.682; OR (SNP x pravastatin interaction) (rs2024902 allele A, ADD model, Imputed): 1.998; OR (SNP x pravastatin interaction) (rs2024902 allele A, DOM model, Imputed): 2.076; OR (SNP x pravastatin interaction) (rs2025107 allele A, DOM model, Imputed): 1.856; OR (SNP x pravastatin interaction) (rs2025108 allele T, DOM model, Imputed): 1.856; OR (SNP x pravastatin interaction) (rs2052428 allele C, DOM model, Imputed): 0.5903; OR (SNP x pravastatin interaction) (rs2053230 allele C, ADD model, Imputed): 0.5414; OR (SNP x pravastatin interaction) (rs2062448 allele T, DOM model, Imputed): 0.5462; OR (SNP x pravastatin interaction) (rs2063420 allele C, REC model, Imputed): 1.755; OR (SNP x pravastatin interaction) (rs2063591 allele C, ADD model, Imputed): 0.7519; OR (SNP x pravastatin interaction) (rs2063591 allele C, DOM model, Imputed): 0.6237; OR (SNP x pravastatin interaction) (rs2095586 allele A, DOM model, Imputed): 1.655; OR (SNP x pravastatin interaction) (rs2095606 allele A, DOM model, Imputed): 0.5466; OR (SNP x pravastatin interaction) (rs2102374 allele A, ADD model, Imputed): 0.6269; OR (SNP x pravastatin interaction) (rs2102374 allele A, DOM model, Imputed): 0.5989; OR (SNP x pravastatin interaction) (rs2108426 allele C, DOM model, Imputed): 0.6626; OR (SNP x pravastatin interaction) (rs2110664 allele A, DOM model, Imputed): 1.429
